Test results: patent US10563197B2, “Use of a combination of Dbait molecule and PARP inhibitors to treat cancer” (INSTITUT CURIE, priority 2015, dated 2020)

Assays:
Type in all cases: cell-based, human
[1] = system: MDAMB231; test: Cell survival, trypan blue counting; settings: for efficacy of the combination of PARPi with AsiDNA versus calculated additivity: 4.8 μM or 16 μM AsiDNA, PARPi doses giving 80% and 50% survival, 6 days; for IC20 / IC50: Homo sapiens, MDA-MB-231, MDAMB231; for IC20: PARPi dose giving 80% survival; for IC50: PARPi dose resulting in 50% survival
Experimental: Cells were grown according to the supplier's instructions.

[2] = system: Breast cancer cell lines MDAMB231; test: Cell survival with DT01 and PARP inhibitors (Example 1, FIG. 1); settings: DT01 100 or 333 μg/ml plus Olaparib 0.1, 1 μM or Veliparib 1, 10, 50 μM; 6 days
Experimental: Breast cancer cell lines MDAMB231 were treated with 100 μg/ml (Black, Squares) or 333 μg/ml (Grey, Crosses) of DT01 or no DT01 (Black, Diamond) and exposed to either 0, 0.1 and 1 μM of Olaparib (upper panel) or 1, 10 and 50 μM Veliparib (lower panel). Survival was measured 6 days after treatment using trypan blue to detect living cells. The data are presented as % of the non-treated control.
The human cell lines were grown in complete RPMI (Gibco, Cergy Pontoise, France) supplemented with 10% fetal bovine serum (ATGC, Orléans, France), 1% sodium pyruvate, streptomycin ([…]) and penicillin ([…]) (Invitrogen, Carlsbad, Calif., USA). Cells were maintained at 37° C. under a 5% CO2 atmosphere, at 100% humidity. Treatments were performed by adding nucleotides (DT01 and others) or/and PARP inhibitors at time zero in medium without serum. The medium was changed with fresh medium containing fetal bovine serum 24 hours after beginning of treatment. Cells were let to grow for 4 additional days (5 days after treatment), treated with trypsin and counted for total number of cells. Trypan blue (0.4%) was added for counting the living cells (uncolored) in the population.

[3] = system: 2 non-tumor cell lines; test: Combined treatment survival in non-tumor cell lines (FIG. 6, 12); settings: AsiDNA 4.8 μM with veliparib 10 and 50 μM; 6 days
Experimental: (§1) Efficacy of AsiDNA (4. 8 μM), olaparib (0, 0.1 and 1 μM) or both was monitored 6 days after treatment by cell counting after trypan blue labeling. (A) Percentage of living cells relative to non-treated condition (NT). (B) Percentage of dead cells. Data are expressed as mean+Sc.D. of at least 2 independent experiments. Dotted lines indicate the calculated cell survivals if additivity between AsiDNA and olaparib.
(A) Percentage of living cells relative to non-treated condition (NT). (B) Percentage of dead cells. Dotted lines indicate the calculated cell survivals if additivity between AsiDNA and veliparib.
The inventors monitored cell survival to combined treatment of 3 BC and 2 non-tumor cell lines with different sensitivities to Ola and AsiDNA alone (FIG. 6; Table 1).

[4] = system: 3 BC cell lines; test: Combined treatment survival in BC cell lines (FIG. 6, 7, 12); settings: AsiDNA 4.8 μM with veliparib 10 and 50 μM; 6 days
Experimental: as §1
Efficacy of AsiDNA (4.8 μM), veliparib (0, 10 and 50 μM) or both was monitored 6 days after treatment by trypan blue staining. (A) Percentage of living cells relative to non-treated condition (NT). (B) Percentage of dead cells. Dotted lines indicate the calculated cell survivals if additivity between AsiDNA and veliparib.
The inventors monitored cell survival to combined treatment of 3 BC and 2 non-tumor cell lines with different sensitivities to Ola and AsiDNA alone (FIG. 6; Table 1). […] However, the combination remained more efficient or at least equal to the expected additive effect at all the tested doses. […] In contrast, the normal cells were insensitive to both, the combined and the single treatments with AsiDNA and Ola (FIG. 6; Table 1).

| Compound | efficacy of the combination of PARPi with AsiDNA versus calculated additivity [1] | IC20 [1] | IC50 [1] | survival to combined treatment with DT01 versus expected added effect of both single treatments [2] | synergistic effect of the combined treatment with AsiDNA [3] | effect of the combined treatment with AsiDNA [4] |
| --- | --- | --- | --- | --- | --- | --- |
| CNCc1ccc(-c2[nH]c3cc(F)cc4c3c2CCNC4=O)cc1 [Rucaparib, 8-Fluoro-2-{4-[(methylamino)methyl]phenyl}-1,3,4,5-tetrahydro-6H-azepino[5,4,3-cd]indol-6-one] | supra-additive efficacy | 400 nM | 1800 nM | – | – | – |
| C[C@]1(c2nc3c(C(N)=O)cccc3[nH]2)CCCN1 [Veliparib, 2-((fi)-2-methylpyrrolidin-2-yl)-1W-benzimidazole-4-carboxamide] | – | – | – | synergic effect | absent | synergistic effect |
| Cn1ncnc1[C@H]1c2n[nH]c(=O)c3cc(F)cc(c23)N[C@@H]1c1ccc(F)cc1 [BMN673, (8S,9R)-5-fluoro-8-(4-fluorophenyl)-9-(1-methyl-1H-1,2,4-triazol-5-yl)-8,9-dihydro-2H-pyrido[4,3,2de]phthalazin-3(7H)-one] | supra-additive efficacy | 0.13 nM | 15.4 nM | – | – | – |
| NC(=O)c1cccc2cn(-c3ccc([C@@H]4CCCNC4)cc3)nc12 [Niraparib] | supra-additive efficacy | 100 nM | 700 nM | – | – | – |
| COC1CCN(C(=O)c2cc(Cc3n[nH]c(=O)c4ccccc34)ccc2F)CC1 [AZD2461] | supra-additive efficacy | 100 nM | 500 nM | – | – | – |
| NC(=O)c1ccc(I)c([N+](=O)[O-])c1 [Iniparib] | supra-additive efficacy | 46000 nM | 49500 nM | – | – | – |
